Reference: patent US9120877B2, “Sulfated polysaccharide compound and the preparation and use thereof” (PARNELL TECHNOLOGIES PTY LTD, priority 2008, dated 2015)

Assay: Stability (degradation and discolouration) of injectable aqueous GXS formulation with antioxidants without refrigeration
Type: physicochemical
Settings: antioxidant in GXS injectable formulation, room temperature
Source text: In one arrangement, the injectable formulation includes a suitable antioxidant to enable the aqueous formulation to remain substantially stable (that is to resist discolouration and degradation) without refrigeration. Patent WO 2007/123800 claims a PPS formulation with “an antioxidant in the group metabisulfite, sodium bisulfate and ascorbate in a concentration of about 0.02% w/v to about 5.0% w/v” is stable without refrigeration. […] This finding supports a conclusion that GXS is a distinct entity to prior art PPS extracted from xylan.

| Compound | Exemplary effective concentration to achieve substantial stability of GXS injectable formulation |
| --- | --- |
| O=S([O-])O.[Na+] [Sodium bisulfite ACS Reagent, Sodium bisulfite] | 0.5% by weight/volume |
| O=S(=O)([O-])CO.[Na+] [Sodium hydroxymethane sulfonate] | 1% by weight/volume |
| O=S([O-])S(=O)(=O)[O-].[Na+].[Na+] [Sodium metabisulfite] | 0.5% by weight/volume |
